For assay [1], the system named is CD8+CTL line specific for HLA-A2. Briefly: Cytotoxicity assay: inhibition of lysis by established CTL, 51Cr-labeled JY targets. The assay is classed as cell-based, human. The note with it: JY targets; for % Specific Lysis: cell ratio 1:1, CTL line AJY. Here is the method: Cytotoxicity Assay. CTL assays were performed as described using ^51Cr-labeled EBV transformed B cells expressing the appropriate HLA allele as targets [[…] et al., J. Immunol. (1982) 129:2001]. In the present protocol, a CD8+CTL line specific for HLA-A2 was tested in the presence of various peptides for lysis of ^51Cr-labeled JY targets. Peptides were added to a final concentration of 100 μg/ml at the initiation of the 4 h assay. Each determination was the mean of triplicate wells. […] In these determinations, inhibition of cytolysis, as described above, employed the CTL cell line AJY, a long term CD8+CTL line specific for HLA-A2 and the target cell was the B-lymphoblastoid cell line JY (HLA-A2, B7). The cytotoxicity assay was performed as described by Clayberger et al., J. Exp. Med. (1984) 162:1709-1714; and Reiss et al., Proc Natl Acad Sci USA (1980) 77:5432-5436. The peptides were preincubated for 30 min with 1-3×10^3 CTLs before addition of 10^3 51Cr-labeled B-lymphoblastoid target cells. The results are reported for varying concentrations of the peptide with varying ratios of the two cell lines.

Another assay concerns rat splenocytes. The assay can be described thus: Differentiation of rat splenocytes into allospecific CTL in vitro. The assay is classed as cell-based. The note with it: initial studies. The protocol: Therefore, we tested whether splenocytes obtained from rats treated with the peptides in vivo could differentiate into CTL ex vivo. In preliminary studies, the half-life of the B7.75-84 peptide was determined to be 2–3 hours in rats.

Assay [2] has as its system popliteal lymph node cells. Briefly: Lymph node proliferation assay (footpad injection of splenocytes). Conditions: treated within 24 hours of footpad injection; compared with approximately 3:1. Type of assay: in vivo, rat. The protocol: ACI or PVG rats (200 g) were injected intravenously with peptides dissolved in saline on day 0. On the indicated days thereafter, the left rear footpads of the rats were injected with 5×10^6 splenocytes from a syngeneic donor and the right rear footpads with 5×10^6 splenocytes from an allogeneic Lew donor (Moeller et al. Transplantation (1993) 55:650). See also Twist and Barnes Transplantation (1973) 15:182; Fanslow et al. Science (1990) 248:739). Seven days after the footpad injection, the animals were sacrificed and the popliteal lymph nodes removed. A single cell suspension was prepared, and the cell number determined using a hemocytometer.
PVG or ACI rats (3 per group) were given a single intravenous injection of 2 mg of each of the four peptides or saline. On the day of treatment, or on days 1, 7, or 10 after treatment, the right footpads were injected with 5×10^6 syngeneic splenocytes while the left footpads were injected with 5×10^6 allogeneic Lew splenocytes. Seven days after the footpad injections, the draining lymph nodes were removed, a single cell suspension was prepared, and the cell number determined.

A further assay relates to cardiac allograft. The assay can be described thus: Heterotopic cardiac allograft survival, Lew donor to ACI recipient. The assay is classed as in vivo, rat. The note with it: peptide in two weeks before or 4 days after surgery plus CsA on days 0–4. From the text: Vascularized cardiac allografts were heterotypically transplanted into the abdomen of recipient rats using a modification of the technique of Ono and Lindsay (Ono and Lindsey J. Thorac. Cardiovasc. Surg. (1969) 57:225). Abdominal allografts were palpated on a daily basis to assess graft function, and rejection was deemed complete when palpable ventricular contractions ceased.
Cyclosporin A (CsA, Sandoz Pharmaceuticals Corporation, Base, Switzerland) dissolved in olive oil was given orally through a gavage tube at the indicated dose. Peptides were dissolved in water or saline and given intravenously or by gavage as indicated.
Since the B7.75-84 and B2702.75-84 peptides blocked cellular immunity in vivo, we examined their effects on allograft survival in rats. ACI (RT1^a) recipients were given abdominal heterotopic heart allografts from Lew donors (Moeller et al. 1993, supra; Ono and Lindsey. 1969, supra). Graft function was monitored by daily abdominal palpation, and rejection was scored as complete when the palpable ventricular contractions ceased.

On to RENLRIALRY [B2702.75–84], for which, in assay [1] (HLA-A2 specific CD8+CTL, peptides 100 μg/ml, 4 h assay), the “inhibition of lysis by established CTL” value is given as “inhibited lysis”. Further, the “% Specific Lysis” value in assay [1] (peptide 25 μg/ml) was determined as 23.9%; in assay [1] (peptide 100 μg/ml) it was 18.6%; in assay [1] (peptide 200 μg/ml), 16.4%. Further, in the assay with rat splenocytes, the “blocking of differentiation of rat splenocytes into allospecific CTL in vitro” value was “blocked the differentiation”. Further, the “ratio of cells recovered from side injected with allogeneic versus syngeneic cells” value in assay [2] is recorded as “A similar ratio”. In addition, the “rejection of transplants with peptide plus CsA” value in the assay with cardiac allograft is on record as “rejected similarly to allografts in animals treated with CsA alone”.
